Here are results for 21 compounds from patent publication US20240067657A1, “AMIDO-SUBSTITUTED PYRIDYL COMPOUNDS AND METHODS OF USE THEREOF FOR THE TREATMENT OF HERPESVIRUSES” (Merck Sharp & Dohme LLC, priority 2020, published 2024).

The structures appear in SMILES notation. Read-outs that look alike come from different tables or passages of the source.

Assay [1] has as its target T1, Human cytomegalovirus DNA polymerase (Human cytomegalovirus, UniProt P08546).
T1 construct: made in house; host or cells: SF21 insect cells (baculovirus vector)
Put plainly: HCMV polymerase assay (AlphaLISA, IC50). To be noted: polymerase assay of Example 190. Format: biochemical. In outline: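 Baculovirus-expressed polymerase (HCMV 0.2 nM, VZV 0.4 nM final) preincubated 30 min at room temperature with compound in pH 7.5 HEPES buffer; reaction started with 1.6 nM DIG-primer/template and nM dNTPs including biotin-dUTP, run 60 min at 37° C. Incorporation detected by AlphaLISA; IC50 from 4-parameter fit.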
(In general: Bead proximity is the source of the signal in Alpha formats.)

Assay [2] concerns HSV-1 Strain F in Vero or MRC5 cells. Put plainly: Viral qPCR assay HSV-1 (V0/V1, V2/V3), EC50. Format: cell-based. In outline: (§1)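 Infected cells added to compounds (10-point 3-fold series), ~72 h at 37 °C, then lysed; viral genomes by TaqMan qPCR against plasmid standard, normalized to PPIA in V0/V1 only, EC50 from 4-parameter fit. HCMV AD169, 0.05-0.1 pfu/cell, ± 50% FBS; VZV 0.04-0.1 pfu/cell; HSV-1 F 0.0005-0.004 pfu/cell.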
Background: Quantitative PCR measures a nucleic acid by following its amplification.

Assay [3] addresses T2, varicella zoster virus DNA polymerase (Varicella-zoster virus, UniProt P09252).
T2 construct: made in house; host or cells: SF21 insect cells (baculovirus vector)
Put plainly: VZV polymerase assay (AlphaLISA, IC50). To be noted: polymerase assay of Example 190. Type of assay: biochemical. On the procedure:
Human cytomegalovirus and varicella zoster virus DNA polymerases were expressed via baculovirus vector in SF21 cells and purified. Heterodimeric nucleic acid substrate used in the herpesvirus polymerase reactions was generated by annealing a 59-mer template to a 17-mer digoxigenin-labeled primer. Polymerase (HCMV final concentration of 0.2 nM; VZV final concentration of 0.4 nM) was combined with an inhibitor compound or DMSO in assay buffer (10 mM HEPES, pH 7.5, 25 mM KCl, 25 mM NaCl, 5 mM MgCl2, 5% glycerol, 0.67 mg/ml bovine serum albuminutes, and 1 mM tris(2-carboxyethyl)phosphine), and this mixture was pre-incubated for 30 minutes at room temperature in 384-well microtiter plates. The polymerization reaction was initiated by the addition of template/primer substrate (final concentration: 1.6 nM), and dNTPs (final concentration: 24 nM dCTP, 24 nMdGTP, 16 nM dATP, 16 nM dTTP, and 0.8 nM biotin-dUTP). After 60 minutes incubation at 37° C., reactions were terminated with quench buffer (25 mM HEPES pH 7.5, 100 mM NaCl, 0.25% Tween-20, 12 mM EDTA, and 1 mg/ml bovine serum albumin). Incorporation of biotinylated UTP was detected with 2.5-5 ug/ml anti-DIG AlphaLISA acceptor beads and 5-10 ug/ml streptavidin AlphaLISA donor beads (Perkin Elmer). Compound effects were normalized to the window defined by the controls (DMSO only and pre-quenched wells), and were fit using a 4-parameter algorithm to report an IC50.

Assay [4] has as its system VZV in MeWo or MRC5 cells. Put plainly: Viral qPCR assay VZV (V0/V1, V2/V3), EC50. Type of assay: cell-based. In outline:
as §1

The subject of assay [5] is HCMV Strain AD169 in MRC-5 cells. Put plainly: Viral qPCR assay HCMV (V0/V1, V2/V3), EC50. Type of assay: cell-based. The procedure, abridged:
as §1

Setting [6] is: Human alphaherpesvirus 1, Vero, VERO cells, 10%, read-out: HSV1 Cell (EC50) VERO 10%.
Where [7] appears, read: Human alphaherpesvirus 3, MeWo, MEWO cells, 10%, read-out: VZV Cell (EC50) MEWO 10%.
[8] abbreviates: Human betaherpesvirus 5, AD169, MRC5, viral qPCR assay of Example 191, read-out: HCMV Cell (EC50).
Where [9] appears, read: MRC5 cells, 10%, read-out: HSV1 Cell (EC50) MRC5 10%.
The mark [10] stands for this setting: MRC5 cells, 10%, read-out: VZV Cell (EC50) MRC5 10%.
The mark [11] stands for this setting: viral qPCR assay of Example 191, read-out: HCMV Cell (EC50).
[12] abbreviates: VERO cells, 10%, read-out: HSV1 Cell (EC50) VERO 10%.
The mark [13] stands for this setting: Human alphaherpesvirus 1, MRC5, MRC5 cells, 10%, read-out: HSV1 Cell (EC50) MRC5 10%.
Setting [14] is: Human alphaherpesvirus 3, MRC5, MRC5 cells, 10%, read-out: VZV Cell (EC50) MRC5 10%.

T1 sequence (P08546 whole entry): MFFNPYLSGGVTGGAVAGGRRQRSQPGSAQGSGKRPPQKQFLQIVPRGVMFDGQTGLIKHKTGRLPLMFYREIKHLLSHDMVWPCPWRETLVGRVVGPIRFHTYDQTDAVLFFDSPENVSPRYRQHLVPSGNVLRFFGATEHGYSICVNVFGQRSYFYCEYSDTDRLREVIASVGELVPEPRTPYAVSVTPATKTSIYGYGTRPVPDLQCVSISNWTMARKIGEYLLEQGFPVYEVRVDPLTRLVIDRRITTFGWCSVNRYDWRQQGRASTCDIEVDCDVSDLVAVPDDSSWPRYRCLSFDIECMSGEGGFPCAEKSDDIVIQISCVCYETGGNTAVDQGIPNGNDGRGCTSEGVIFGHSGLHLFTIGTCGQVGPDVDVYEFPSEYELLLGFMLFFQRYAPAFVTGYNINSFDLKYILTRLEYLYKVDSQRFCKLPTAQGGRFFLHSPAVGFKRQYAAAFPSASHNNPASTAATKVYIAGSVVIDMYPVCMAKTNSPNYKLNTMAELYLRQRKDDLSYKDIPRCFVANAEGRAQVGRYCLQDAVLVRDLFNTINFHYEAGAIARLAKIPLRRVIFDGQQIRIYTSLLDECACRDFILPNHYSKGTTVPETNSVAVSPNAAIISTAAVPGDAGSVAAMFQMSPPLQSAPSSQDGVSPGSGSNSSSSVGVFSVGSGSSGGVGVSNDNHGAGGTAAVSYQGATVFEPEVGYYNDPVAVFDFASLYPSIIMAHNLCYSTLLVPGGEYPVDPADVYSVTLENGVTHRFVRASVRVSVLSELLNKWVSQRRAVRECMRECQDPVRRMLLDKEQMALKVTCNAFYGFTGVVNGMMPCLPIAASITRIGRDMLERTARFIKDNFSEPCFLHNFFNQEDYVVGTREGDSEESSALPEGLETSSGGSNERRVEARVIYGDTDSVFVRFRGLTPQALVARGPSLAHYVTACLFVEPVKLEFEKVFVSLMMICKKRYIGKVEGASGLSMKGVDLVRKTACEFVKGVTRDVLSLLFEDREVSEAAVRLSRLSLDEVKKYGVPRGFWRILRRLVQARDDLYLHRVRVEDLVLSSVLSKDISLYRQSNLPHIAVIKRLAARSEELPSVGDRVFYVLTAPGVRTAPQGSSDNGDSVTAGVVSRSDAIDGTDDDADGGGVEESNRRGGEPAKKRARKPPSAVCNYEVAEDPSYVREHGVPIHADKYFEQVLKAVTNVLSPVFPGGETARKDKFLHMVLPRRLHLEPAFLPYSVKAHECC
T2 sequence (P09252 whole entry): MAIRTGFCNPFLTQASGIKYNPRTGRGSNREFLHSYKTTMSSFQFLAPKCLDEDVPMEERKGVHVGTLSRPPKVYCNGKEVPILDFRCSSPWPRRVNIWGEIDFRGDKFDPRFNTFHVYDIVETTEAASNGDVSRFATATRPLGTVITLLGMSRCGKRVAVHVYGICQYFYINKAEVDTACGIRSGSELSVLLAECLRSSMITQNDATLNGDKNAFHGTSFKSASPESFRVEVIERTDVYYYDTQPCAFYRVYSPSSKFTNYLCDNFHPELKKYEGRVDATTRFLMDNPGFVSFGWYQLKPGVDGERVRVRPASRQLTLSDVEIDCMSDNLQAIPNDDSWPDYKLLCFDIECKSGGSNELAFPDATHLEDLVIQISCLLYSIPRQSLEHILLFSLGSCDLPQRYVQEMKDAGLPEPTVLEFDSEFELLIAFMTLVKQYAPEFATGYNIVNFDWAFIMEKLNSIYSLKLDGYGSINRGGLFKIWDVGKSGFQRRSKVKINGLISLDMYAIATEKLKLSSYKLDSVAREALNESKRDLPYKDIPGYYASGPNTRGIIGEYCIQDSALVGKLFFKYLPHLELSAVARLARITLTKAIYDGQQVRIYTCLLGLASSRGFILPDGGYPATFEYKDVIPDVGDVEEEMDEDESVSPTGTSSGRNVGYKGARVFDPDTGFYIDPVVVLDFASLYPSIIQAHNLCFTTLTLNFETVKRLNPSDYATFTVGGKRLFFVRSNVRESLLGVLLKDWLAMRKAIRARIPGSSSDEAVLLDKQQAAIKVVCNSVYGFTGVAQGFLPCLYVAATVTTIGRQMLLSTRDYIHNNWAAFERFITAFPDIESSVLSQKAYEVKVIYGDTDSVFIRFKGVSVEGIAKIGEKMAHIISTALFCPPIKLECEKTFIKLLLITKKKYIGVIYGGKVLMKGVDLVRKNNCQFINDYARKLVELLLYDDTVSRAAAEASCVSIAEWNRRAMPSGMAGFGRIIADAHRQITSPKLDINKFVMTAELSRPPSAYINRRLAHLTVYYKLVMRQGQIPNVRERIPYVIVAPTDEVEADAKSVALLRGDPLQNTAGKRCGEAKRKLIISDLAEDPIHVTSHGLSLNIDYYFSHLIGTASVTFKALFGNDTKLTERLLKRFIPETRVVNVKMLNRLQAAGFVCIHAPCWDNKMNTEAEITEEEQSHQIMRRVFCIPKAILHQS

Usually IC50 stands for the concentration at which inhibition is half-maximal. A word on the EC50: it is the concentration needed to bring the measured effect to its halfway point. `CC(C)CCn1cc(-c2cnc(C(=O)NCc3ccc(Cl)cc3)cc2O[C@H]2CCN3C(=O)OC[C@@H]3C2)cn1` (racemic) [Compound 9]: the IC50 came to 147 nM in assay [1] and 114 nM in assay [3]. Moreover, the EC50 in assay [2] (setting [6]) is 1130 nM; in assay [4] (setting [7]) it was 859 nM; in assay [5] (setting [8]), 582 nM.
The like results for `CN(C)CCn1cc(-c2cnc(C(=O)NCc3ccc(Cl)cc3)cc2O[C@H]2CCN3C(=O)OC[C@@H]3C2)cn1` (racemic) [Compound 10] were, in that order, 80.1 nM, 41.7 nM, 1360 nM, 375 nM and 178 nM.
The like results for `CC(C)Cn1cc(-c2cnc(C(=O)NCc3ccc(Cl)cc3)cc2O[C@H]2CCN3C(=O)OC[C@@H]3C2)cn1` (racemic) [Compound 11] were, in that order, 70.5 nM, 51.2 nM, 813 nM, 712 nM and 685 nM.
The like results for `CC(C)(C)n1cc(-c2cnc(C(=O)NCc3ccc(Cl)cc3)cc2O[C@H]2CCN3C(=O)OC[C@@H]3C2)cn1` (racemic) [Compound 12] were, in that order, 70.5 nM, 69.6 nM, 882 nM, 977 nM and 1160 nM.
As to `CCCn1cc(-c2cnc(C(=O)NCc3ccc(Cl)cc3)cc2O[C@H]2CCN3C(=O)OC[C@@H]3C2)cn1` (racemic) [Compound 13], the results for the IC50 in assay [1] and in assay [3] were 50.9 nM and 38 nM, respectively. For the same compound, the results for the concentration giving a half-maximal response (EC50) in assay [2] (setting [6]), in assay [4] (setting [7]) and in assay [5] (setting [8]) were 388 nM, 601 nM and 363 nM, respectively.
With `CCn1cc(-c2cnc(C(=O)NCc3ccc(Cl)cc3)cc2O[C@H]2CCN3C(=O)OC[C@@H]3C2)cn1` (racemic) [Compound 16], the half-inhibitory concentration (IC50) in assay [1] was determined as 20.8 nM; in assay [3] it was 11.2 nM. The EC50 in assay [2] (setting [6]) was 200 nM; in assay [4] (setting [7]), 165 nM; in assay [5] (setting [8]), 188 nM.
The like results for `Cn1cc(-c2cnc(C(=O)NCc3ccc(C#N)cc3)cc2O[C@H]2CCN3C(=O)OC[C@@H]3C2)cn1` (racemic) [Compound 95] were, in that order, 38.8 nM, 23.9 nM, 1920 nM, 241 nM and 181 nM.
For the compound `Cn1cc(-c2cnc(C(=O)NCc3ccc(Cl)cc3)cc2O[C@H]2CCN3C(=O)COC[C@@H]3C2)cn1` (racemic) [Compound 157], the 50% inhibitory concentration (IC50) amounted to 150 nM in assay [1] and 70.8 nM in assay [3]. Also, the 50% effective concentration (EC50) in assay [2] (Human alphaherpesvirus 1, Vero, read-out: HSV1 Cell (EC50) VERO 10%) was found to be 222 nM; in assay [4] (Human alphaherpesvirus 3, MeWo, read-out: VZV Cell (EC50) MEWO 10%) it was 852 nM; in assay [5] (Human betaherpesvirus 5, AD169, MRC5, read-out: HCMV Cell (EC50)), 901 nM.
On to `N#Cc1cnc(C(=O)NCc2ccc(Cl)cc2)cc1O[C@H]1CCN2C(=O)CC[C@@H]2C1` (racemic) [Compound 158], for which the results for the concentration for half-maximal inhibition (IC50) in assay [1] and in assay [3] were 67.9 nM and 40.7 nM, respectively. In addition, the EC50 in assay [2] (setting [6]) was found to be 473 nM; in assay [4] (setting [7]) it was 574 nM; in assay [5] (setting [8]), 1040 nM.
For `O=C(NCc1ccc(Cl)cc1)c1cc(O[C@H]2CCN3C(=O)NC[C@@H]3C2)c(-c2cnn(C(F)F)c2)cn1` (racemic) [Compound 163], the IC50 in assay [1] amounted to 203 nM; in assay [3] it was 105 nM. Moreover, the EC50 in assay [2] (setting [6]) is 762 nM; in assay [4] (setting [7]) it was 588 nM; in assay [5] (setting [8]), 2730 nM.
The corresponding values for `Cn1cc(-c2cnc(C(=O)NCc3ccc(Cl)cc3)cc2O[C@H]2CCN3C(=O)CC[C@H]3C2)cn1` (racemic) [Compound 170] are 178 nM, 87.4 nM, 266 nM, 599 nM and 736 nM.
For the compound `Cn1cc(-c2cnc(C(=O)NCc3ccc(Cl)cc3)cc2O[C@H]2CCN3C(=O)NC[C@H]3C2)cn1` (racemic) [Compound 171], the IC50 worked out at 219 nM in assay [1] and 87.7 nM in assay [3]. In addition, the EC50 came out at 1950 nM in assay [2] (setting [6]), 883 nM in assay [4] (setting [7]) and 1090 nM in assay [5] (setting [8]).
Turning to `CC(C)(O)C1CCN(c2cnc(C(=O)NCc3ccc(Cl)cc3)cc2O[C@H]2CCN3C(=O)OC[C@@H]3C2)C1` (single isomer, unassigned) [Compound 117-1], the concentration for half-maximal inhibition (IC50) in assay [1] is 22.7 nM; in assay [3], 10.5 nM. Moreover, the concentration for a half-maximal effect (EC50) worked out at 566 nM in assay [2] (setting [9]), 844 nM in assay [4] (setting [10]) and 360 nM in assay [5] (setting [8]).
Consider `CC(C)(O)C1CCN(c2cnc(C(=O)NCc3ccc(Cl)cc3)cc2O[C@H]2CCN3C(=O)OC[C@@H]3C2)C1` (single isomer, unassigned) [Compound 117-2], for which the IC50 worked out at 12.1 nM in assay [1] and 3.05 nM in assay [3]. In addition, the EC50 worked out at 4780 nM in assay [2] (setting [9]), 9100 nM in assay [4] (setting [10]) and 211 nM in assay [5] (setting [11]).
With `O=C(NCc1ccc(Cl)cc1)c1cc(O[C@H]2CCN3C(=O)OC[C@@H]3C2)c(C2CC2CO)cn1` (single isomer, unassigned) [Compound 156-1], the half-inhibitory concentration (IC50) in assay [1] was 40.3 nM; in assay [3], 24.9 nM. Besides, the concentration giving a half-maximal response (EC50) was found to be 3500 nM in assay [2] (setting [12]), 2630 nM in assay [4] (setting [10]) and 1280 nM in assay [5] (setting [11]).
As for `O=C(NCc1ccc(Cl)cc1)c1cc(O[C@H]2CCN3C(=O)OC[C@@H]3C2)c(C2CC2CO)cn1` (single isomer, unassigned) [Compound 156-2], the IC50 in assay [1] came out at 8.03 nM; in assay [3], 4.96 nM. Further, the concentration for a half-maximal effect (EC50) in assay [2] (setting [12]) amounted to 738 nM; in assay [4] (setting [10]), 1180 nM; in assay [5] (setting [11]) it was 600 nM.
On to `O=C(NCc1ccc(Cl)cc1)c1cc(O[C@H]2CCN3C(=O)CCC[C@@H]3C2)c(-c2cnn(C(F)F)c2)cn1` (single isomer, unassigned) [Compound 161-1], for which the 50% inhibitory concentration (IC50) in assay [1] stood at 130 nM; in assay [3], 47.3 nM. Further, the EC50 in assay [2] (setting [6]) was determined as 461 nM; in assay [4] (setting [7]) it was 210 nM; in assay [5] (setting [8]), 1330 nM.
On to `O=C(NCc1ccc(Cl)cc1)c1cc(O[C@H]2CCN3C(=O)OCC[C@@H]3C2)c(-c2cnn(C(F)F)c2)cn1` (single isomer, unassigned) [Compound 162-1], for which the IC50 is 3.08 nM in assay [1] and 2.42 nM in assay [3]. For the same compound, the EC50 in assay [2] (setting [13]) is 107 nM; in assay [2] (setting [6]) it was 77 nM; in assay [4] (setting [14]), 447 nM; in assay [4] (setting [7]), 61.1 nM; in assay [5] (setting [8]) it was 88.6 nM.
On to `O=C(NCc1ccc(Cl)cc1)c1cc(O[C@H]2CCN3C(=O)OC[C@@H]3C2)c(-c2cnn(C(F)F)c2)cn1` [Compound 3], for which the concentration for half-maximal inhibition (IC50) in assay [1] was determined as 10.3 nM; in assay [3] it was 7.39 nM. For the same compound, the EC50 amounted to 127 nM in assay [2] (setting [13]); 70.9 nM in assay [2] (setting [6]); 170 nM in assay [4] (setting [14]); 112 nM in assay [4] (setting [7]); 180 nM in assay [5] (setting [8]).
As for `CC(=O)N1CCC(Oc2cc(C(=O)NCc3ccc(Cl)cc3)ncc2-c2cnn(C)c2)CC1` [Compound 6], the IC50 is 79 nM in assay [1] and 30.8 nM in assay [3]. The EC50 came to 144 nM in assay [2] (setting [6]), 84.5 nM in assay [4] (setting [7]) and 342 nM in assay [5] (setting [8]).
With `O=C(NCc1ccc(Cl)cc1F)c1cc(O[C@H]2CCN3C(=O)OC[C@@H]3C2)c(-c2cnn(C(F)F)c2)cn1` [Compound 8], the concentration for half-maximal inhibition (IC50) in assay [1] is 26.2 nM; in assay [3], 33.3 nM. Also, the concentration for a half-maximal effect (EC50) in assay [2] (setting [6]) is 259 nM; in assay [4] (setting [7]), 368 nM; in assay [5] (setting [8]) it was 440 nM.
